The text below walks through data of patent US20240132431A1, “METHOD FOR ALKYLATING ACIDIC FUNCTIONAL GROUP” (Chugai Seiyaku Kabushiki Kaisha, priority 2021, published 2024).

This experiment deals with T1, Bcl-2 protein (Recombinant Human Bcl-2 Protein) (Homo sapiens, UniProt P10415).
T1 construct: purchased Novus NBP2-34889
The experiment is described as follows: Binding evaluation of mixture library compounds to Bcl-2 using AS-MS (affinity selection mass spectrometry). The settings on record: for ASMS ratio (%) n = 1: replicate n = 1; for ASMS ratio (%) n = 1 / ASMS ratio (%) n = 2: ASMS Ratio(%)=(A−C)/B×100; for ASMS ratio (%) n = 2: replicate n = 2. The method in brief: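 Pooled library of ~1200 compounds ([…] each, final) incubated with recombinant human Bcl-2 (20 μM final) in Tris-HCl pH 7.4, NaCl, Tween-20, DTT buffer, dark, 23° C., 1 h. Bound fraction recovered by SEC spin column, organic extraction, reversed-phase LC/MS. ASMS Ratio (%) = (A−C)/B×100 versus protein-free standard and SEC blank.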

The mark [1] stands for this setting: AS-MS, mixture of 1200 compounds, Bcl-2.
Where [2] appears, read: AS-MS on the mixture of 1200 library compounds.

T1 sequence (P10415 whole entry): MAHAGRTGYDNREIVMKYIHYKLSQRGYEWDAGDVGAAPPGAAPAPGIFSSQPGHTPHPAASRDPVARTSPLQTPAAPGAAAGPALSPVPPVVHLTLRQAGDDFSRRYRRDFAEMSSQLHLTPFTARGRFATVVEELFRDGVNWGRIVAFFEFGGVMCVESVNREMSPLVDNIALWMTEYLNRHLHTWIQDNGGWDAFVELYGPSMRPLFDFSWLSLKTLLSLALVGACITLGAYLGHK

Turning to `CCOc1cncc(-c2cc(C(=O)N3CCN(c4ccc(C(=O)NS(=O)(=O)CC56CC7CC(CC(C7)C5)C6)nn4)CC3)cc(C(F)(F)F)c2)c1` [B2A018-01, N-(1-Adamantylmethylsulfonyl)-6-[4-[3-(5-ethoxypyridin-3-yl)-5-(trifluoromethyl)benzoyl]piperazin-1-yl]pyridazine-3-carboxamide], for the setting “AS-MS, mixture library, Bcl-2”, the “ASMS ratio (%) n = 1” value came to 5.1% and the “ASMS ratio (%) n = 2” value is 0.0%.

Regarding `CCOc1cccc(-c2ccc(C(=O)N3CCN(c4ccc(C(=O)NS(=O)(=O)c5ccc(NCCSc6ccccc6)c([N+](=O)[O-])c5)nn4)CC3)c3ccccc23)c1` [B2Q013-01, 6-[4-[4-(3-Ethoxyphenyl)naphthalene-1-carbonyl]piperazin-1-yl]-N-[3-nitro-4-(2-phenylsulfanylethylamino)phenyl]sulfonylpyridazine-3-carboxamide], where the note is “AS-MS, mixture library, Bcl-2”, the “ASMS ratio (%) n = 1” value is 0.0% and the “ASMS ratio (%) n = 2” value was found to be 0.0%.

Turning to `CCOc1cncc(C#Cc2ccccc2CN2CCN(c3ccc(C(=O)NCC45CC6CC(CC(C6)C4)C5)cc3)CC2)c1` [B1A070-01, N-(1-Adamantylmethyl)-4-[4-[[2-[2-(5-ethoxypyridin-3-yl)ethynyl]phenyl]methyl]piperazin-1-yl]benzamide], under setting [1], the “ASMS ratio (%) n = 1” value is 0.0% and the “ASMS ratio (%) n = 2” value stood at 0.0%.

Regarding `CCOc1cncc(-c2cc(CN3CCN(c4ccc(C(=O)N(CC)CC)nn4)CC3)cc(C(F)(F)F)c2)c1` [B4J088-01], under “AS-MS, mixture library, Bcl-2”, the “ASMS ratio (%) n = 1” value was 0.0% and the “ASMS ratio (%) n = 2” value amounted to 0.0%.

Turning to “6-[4-[4-(5-Ethoxypyridin-3-yl)naphthalene-1-carbonyl]piperazin-1-yl]-N-propylpyridazine-3-carboxamide [B1M072-01]”, under setting [1], the “ASMS ratio (%) n = 1” value was found to be 0.0% and the “ASMS ratio (%) n = 2” value came to 1.9%.

Regarding `CCOc1cncc(-c2cc(CN3CCN(c4ccc(C(=O)NS(C)(=O)=O)cc4)CC3)cc(C(F)(F)F)c2)c1` [B2I062-01, 4-[4-[[3-(5-Ethoxypyridin-3-yl)-5-(trifluoromethyl)phenyl]methyl]piperazin-1-yl]-N-methylsulfonylbenzamide], the “ASMS ratio (%)” value was 0.0% (n = 1) and 0.0% (n = 2).

For `CCOc1cncc(-c2ccc(C(=O)N3CCN(c4ccc(C(=O)NS(C)(=O)=O)cc4)CC3)c3ccccc23)c1` [B2I036-01, 4-[4-[4-(5-Ethoxypyridin-3-yl)naphthalene-1-carbonyl]piperazin-1-yl]-N-methylsulfonylbenzamide], under “AS-MS, mixture library, Bcl-2”, the “ASMS ratio (%) n = 1” value is on record as −0.7% and the “ASMS ratio (%) n = 2” value stood at 1.5%.

With `CCOc1cccc(-c2ccc(CN3CCN(c4ccc(C(=O)NS(C)(=O)=O)cc4)CC3)c3ccccc23)c1` [B2I065-01, 4-[4-[[4-(3-Ethoxyphenyl)naphthalen-1-yl]methyl]piperazin-1-yl]-N-methylsulfonylbenzamide], the “ASMS ratio (%)” value (n = 1) is 0.0% and the “ASMS ratio (%)” value (n = 2) worked out at 0.0%.

For `CCOc1cncc(-c2csc(CN3CCN(c4ccc(C(=O)NS(C)(=O)=O)cc4)CC3)c2)c1` [B2I068-01], the “ASMS ratio (%)” value (n = 1) stood at 0.0% and the “ASMS ratio (%)” value (n = 2) came to 0.0%.

Take `CCOc1cncc(C#Cc2ccccc2CN2CCN(c3ccc(C(=O)NS(=O)(=O)CC45CC6CC(CC(C6)C4)C5)cc3)CC2)c1` [B2A070-01, N-(1-Adamantylmethylsulfonyl)-4-[4-[[2-[2-(5-ethoxypyridin-3-yl)ethynyl]phenyl]methyl]piperazin-1-yl]benzamide]: where the note is “AS-MS, mixture library, Bcl-2”, the “ASMS ratio (%) n = 2” value turned out to be 0.0%.

In the case of `CCOc1cccc(-c2cc(CN3CCN(c4ccc(C(=O)NS(=O)(=O)C(C)(C)C)cc4)CC3)cc(OCC)c2)c1` [B2L055-01, N-tert-Butylsulfonyl-4-[4-[[3-ethoxy-5-(3-ethoxyphenyl)phenyl]methyl]piperazin-1-yl]benzamide], the “ASMS ratio (%)” value turned out to be 0.0% (n = 1) and 0.0% (n = 2).

`CCOc1cncc(-c2cnn(-c3cc(C(=O)N4CCN(c5ccc(C(=O)N(CC)CC)cc5)CC4)cc(C(F)(F)F)c3)c2)c1` [B4J044-01, 4-[4-[3-[4-(5-Ethoxypyridin-3-yl)pyrazol-1-yl]-5-(trifluoromethyl)benzoyl]piperazin-1-yl]-N,N-diethylbenzamide]: under setting [2], the “ASMS ratio (%) n = 1” value is 1.8% and the “ASMS ratio (%) n = 2” value amounted to 0.3%.

As for `CCOc1cccc(-c2cc(CN3CCN(c4ccc(C(=O)NCC(F)(F)F)cc4)CC3)cc(OCC)c2)c1` [B1K055-01, 4-[4-[[3-Ethoxy-5-(3-ethoxyphenyl)phenyl]methyl]piperazin-1-yl]-N-(2,2,2-trifluoroethyl)benzamide], under setting [1], the “ASMS ratio (%) n = 1” value is reported as −0.8% and the “ASMS ratio (%) n = 2” value was found to be 0.0%.

Consider `CCOc1cncc(-c2cc(CN3CCN(c4ccc(C(=O)NS(=O)(=O)C(C)(C)C)cc4)CC3)cc(OC(C)C)c2)c1` [B2L058-01], for which the “ASMS ratio (%)” value by setting is: (n = 1) 0.0%; (n = 2) 0.0%.

Turning to `CCOc1cccc(-c2cc(C(=O)N3CCN(c4ccc(C(=O)NS(=O)(=O)c5ccc(NCCSc6ccccc6)c([N+](=O)[O-])c5)cc4)CC3)cc(C(F)(F)F)c2)c1` [B2Q039-01, 4-[4-[3-(3-Ethoxyphenyl)-5-(trifluoromethyl)benzoyl]piperazin-1-yl]-N-[3-nitro-4-(2-phenylsulfanylethylamino)phenyl]sulfonylbenzamide], under “AS-MS, mixture library, Bcl-2”, the “ASMS ratio (%) n = 1” value came to 7.2% and the “ASMS ratio (%) n = 2” value amounted to 4.6%.

As to `CCOc1cccc(-c2cc(C(=O)N3CCN(c4ccc(C(=O)NS(=O)(=O)CC56CC7CC(CC(C7)C5)C6)nn4)CC3)cc(C(C)(C)C)c2)c1` [B2A015-01, N-(1-Adamantylmethylsulfonyl)-6-[4-[3-tert-butyl-5-(3-ethoxyphenyl)benzoyl]piperazin-1-yl]pyridazine-3-carboxamide], where the note is “AS-MS, mixture library, Bcl-2”, the “ASMS ratio (%) n = 1” value was 5.9% and the “ASMS ratio (%) n = 2” value is on record as 9.7%.

In the case of “6-[4-[[2-[2-(5-Ethoxypyridin-3-yl)ethynyl]phenyl]methyl]piperazin-1-yl]-N-propylpyridazine-3-carboxamide [B1M055-01]”, under setting [1], the “ASMS ratio (%) n = 1” value is on record as 3.9% and the “ASMS ratio (%) n = 2” value is reported as −1.2%.

As for `CCOc1cncc(-c2cc(CN3CCN(c4ccc(C(=O)Nc5ccc(OC)cc5)nn4)CC3)cc(C(F)(F)F)c2)c1` [B1O088-01], under setting [2], the “ASMS ratio (%) n = 1” value was found to be 3.1% and the “ASMS ratio (%) n = 2” value is 1.4%.

Turning to `CCOc1cccc(C#Cc2cncc(C(=O)N3CCN(c4ccc(C(=O)NS(=O)(=O)c5ccc(NCCSc6ccccc6)c(C(F)(F)F)c5)nn4)CC3)c2)c1` [B2R009-01, 6-[4-[5-[2-(3-Ethoxyphenyl)ethynyl]pyridine-3-carbonyl]piperazin-1-yl]-N-[4-(2-phenylsulfanylethylamino)-3-(trifluoromethyl)phenyl]sulfonylpyridazine-3-carboxamide], the “ASMS ratio (%)” value came out at 0.0% (n = 1) and 19.5% (n = 2).

On to `CCOc1cccc(-c2ccc(CN3CCN(c4ccc(C(=O)Nc5ccc(OC)cc5)nn4)CC3)cc2C)c1` [B1O073-01, 6-[4-[[4-(3-Ethoxyphenyl)-3-methylphenyl]methyl]piperazin-1-yl]-N-(4-methoxyphenyl)pyridazine-3-carboxamide], for which, under setting [2], the “ASMS ratio (%) n = 1” value was found to be 2.0% and the “ASMS ratio (%) n = 2” value was 3.7%.

On to `CCOc1cccc(-c2csc(CN3CCN(c4ccc(C(=O)NS(=O)(=O)CC56CC7CC(CC(C7)C5)C6)nn4)CC3)c2)c1` [B2A093-01, N-(1-Adamantylmethylsulfonyl)-6-[4-[[4-(3-ethoxyphenyl)thiophen-2-yl]methyl]piperazin-1-yl]pyridazine-3-carboxamide], for which, under “AS-MS, mixture library, Bcl-2”, the “ASMS ratio (%) n = 1” value is given as 13.0% and the “ASMS ratio (%) n = 2” value amounted to 0.0%.

Take `CCOc1cccc(-c2cc(CN3CCN(c4ccc(C(=O)NS(C)(=O)=O)cc4)CC3)cc(OCC)c2)c1` [B2I055-01, 4-[4-[[3-Ethoxy-5-(3-ethoxyphenyl)phenyl]methyl]piperazin-1-yl]-N-methylsulfonylbenzamide]: the “ASMS ratio (%)” value is recorded as 0.0% (n = 1) and 0.0% (n = 2).

Consider “6-[4-[3-(5-Ethoxypyridin-3-yl)-5-(trifluoromethyl)benzoyl]piperazin-1-yl]-N-propylpyridazine-3-carboxamide [B1M007-01]”, for which, under setting [1], the “ASMS ratio (%) n = 1” value stood at 0.3% and the “ASMS ratio (%) n = 2” value turned out to be 0.3%.

Consider `CCOc1cccc(-c2ccc(C(=O)N3CCN(c4ccc(C(=O)NCC(F)(F)F)nn4)CC3)c3ccccc23)c1` [B1K013-01, 6-[4-[4-(3-Ethoxyphenyl)naphthalene-1-carbonyl]piperazin-1-yl]-N-(2,2,2-trifluoroethyl)pyridazine-3-carboxamide], for which, under setting [1], the “ASMS ratio (%) n = 1” value was 0.0% and the “ASMS ratio (%) n = 2” value turned out to be 1.4%.

On to `CCOc1cccc(-c2cc(C(=O)N3CCN(c4ccc(C(=O)NCC56CC7CC(CC(C7)C5)C6)cc4)CC3)cc(C(C)(C)C)c2)c1` [B1A037-01, N-(1-Adamantylmethyl)-4-[4-[3-tert-butyl-5-(3-ethoxyphenyl)benzoyl]piperazin-1-yl]benzamide], for which, under setting [1], the “ASMS ratio (%) n = 1” value amounted to 3.3% and the “ASMS ratio (%) n = 2” value is reported as −5.0%.

For `CCOc1cccc(-c2cc(C(=O)N3CCN(c4ccc(C(=O)NS(=O)(=O)CC56CC7CC(CC(C7)C5)C6)nn4)CC3)cc(C(F)(F)F)c2)c1` [B2A017-01, N-(1-Adamantylmethylsulfonyl)-6-[4-[3-(3-ethoxyphenyl)-5-(trifluoromethyl)benzoyl]piperazin-1-yl]pyridazine-3-carboxamide], where the note is “AS-MS, mixture library, Bcl-2”, the “ASMS ratio (%) n = 1” value is 18.6% and the “ASMS ratio (%) n = 2” value turned out to be 7.5%.
